Legend:
[1] = Ester hydrolysis in PBS/DMSO at pH 7.4 (time‐resolved UV‐vis); type: physicochemical; conditions: PBS/DMSO (1 vol%), 20 μM
Text: Following our recent investigations on the self‐assembly behavior of ruthenacarborane complexes in aqueous solutions at physiologic pH,9, 10 the behavior of free acid 3 and ester 4 in aqueous solution was studied via UV‐vis spectroscopy and Nanoparticle Tracking Analysis (NTA) in phosphate‐buffered saline (PBS)/DMSO mixtures (pH 7.4). UV‐vis spectroscopy is a useful tool to follow the ester hydrolysis over time, when a UV‐(vis)‐active chromophore is present (in the case of 4, the quinoline ring). Experiments were carried out at room temperature (23 and 25 °C, for UV‐vis and NTA, respectively), to simulate the conditions of the working solutions used for cell cultures, and at 37 °C (UV‐vis), to simulate the conditions of incubation of cells.
UV‐vis spectroscopy. Stock solutions of 3, 4 and 8‐hydroxyquinoline (8‐HQ) in distilled DMSO were freshly prepared before use ([3]=2.11 mM; [4]=6.56 mM; [8‐HQ]=25.76 mM). An aliquot of the DMSO stock solution of 3, 4 or 8‐HQ was added to 3 mL PBS solution, so that the final concentration was 20 μM. DMSO content was adjusted to 1 vol % (considering the amount of DMSO from the stock solutions) before addition of the ruthenacarborane, in all samples. Time‐resolved UV‐vis spectra of 4 were measured, over a period of 26 h at room temperature (23±1 °C) and at 37±0.3 °C to follow hydrolysis of the ester bond of 4 at physiologic pH (7.4). PBS/DMSO solutions of 3 and 8‐HQ were also measured, as references. All measurements were corrected by subtracting the blank (PBS+1 vol % DMSO). Experiments were run in duplicate.

LN229 cells = assay: DAPI staining, fluorescence microscopy, LN229; type: cell-based, human; conditions: LN229, 40 μM, 72 h
Protocol: Flow cytometry. For gaining better insights into the mechanisms of action of the ruthenium complexes, MCF‐7 and LN229 cells incubated with an IC50 dose of 3 or 4, were analyzed via flow cytometry. Several staining protocols were carried out in parallel, in independent experiments: i) AnnV/PI for the detection of apoptotic cell death, ii) AO for the detection of acidic vacuoles, iii) ApoStat for checking caspase activation, iv) CFSE for detecting interference with cellular proliferation, and v) DAPI for the detection of morphological signs of apoptosis. Untreated cells or cells treated only with BSA (control) were also measured, as reference for BSA‐free and BSA‐containing drug formulations, respectively. […] Channels FL1 (green emission), FL2 (orange emission) and/or FL3 (dark red emission) were used for fluorescence detection, according to the specific staining agent. Sideward Scatter (SSC) for MCF‐7 cells treated with 4 or BSA−4 was also analyzed, with respect to the control, for detection of shifts of cell granularity. […]
FCS, 2 mM L‐glutamine, 0.01% sodium pyruvate and antibiotics, at 37 °C in a humidified atmosphere with 5% CO2. […] Cells were counted and seeded in 96‐well plates and incubated overnight, as described above. […]
Staining Protocols for Flow Cytometric Analysis. […] Finally, cells were washed in PBS, resuspended in PBS (or AnnV‐binding buffer for AnnV/PI), and analysed. […]

With “closo ‐[3‐(η^6‐p‐Cymene)‐1‐(quinolin‐8‐yl‐acetate)‐3,1,2‐RuC2B9H10] [Compound 4]” the “time after which hydrolysis is pronounced” value ([1]; pH 7.4, 23 °C) was 5 h, the “time to complete hydrolysis of the ester bond” value ([1]; pH 7.4, 23 °C) was 23 h and the “time to complete hydrolysis of the ester bond” value ([1]; pH 7.4, 37 °C) was 2.5 h. For the same substance, the “morphological features of apoptosis (DAPI)” value (LN229 cells) was “several typical morphological features of apoptosis”.
